Holding throughout (assay): ≥ marks a high value that may be exact or a test limit, other limits are often not marked, values filed in µg/mL are converted to µM
Experiment [1] concerns Klebsiella oxytoca MTCC 2275.
Experiment [2] deals with Citrobacter freundii MTCC 1658.
Experiment [3] concerns Corynebacterium glutamicum MTCC 2679.
Experiment [4] relates to Salmonella enterica MTCC 9844.
The test system of experiment [5] is Escherichia coli K12 MG1655.
The test system of experiment [6] is Klebsiella pneumoniae MTCC 7407.
Experiment [7] has as its system Bordetella bronchiseptica MTCC 6837.
In experiment [8] the test system is Alkalihalobacillus alcalophilus MTCC 860.
The test system of experiment [9] is Haemophilus influenzae MTCC 621.
Experiment [10] relates to Vibrio cholerae MTCC 3904.
Experiment [11] has as its system Proteus mirabilis MTCC 3158.
For experiment [12], the system named is Staphylococcus aureus MTCC 3160.
In experiment [13] the test system is Pseudomonas aeruginosa MTCC 3542.
Experiment [14] has as its system Enterococcus faecalis MTCC 439.
For experiment [15], the system named is Klebsiella aerogenes MTCC 111.
Experiment [16] concerns Staphylococcus haemolyticus MTCC 3383.
The test system of experiment [17] is Pluralibacter gergoviae MTCC 3826.
For experiment [18], the system named is Salmonella enterica subsp. enterica serovar Typhimurium ATCC 14028.
Experiment [19] concerns Shigella flexneri MTCC 1457.
The subject of experiment [20] is Stenotrophomonas maltophilia MTCC 1890.
The test system of experiment [21] is Shigella boydii MTCC 11947.
For experiment [22], the system named is Proteus vulgaris MTCC 1771.
In experiment [23] the test system is Citrobacter koseri MTCC 1657.
Experiment [24] concerns Alcaligenes faecalis MTCC 1937.
For experiment [25], the system named is Acinetobacter baumannii MTCC 9829.
The test system of experiment [26] is Escherichia coli C25.
Experiment [27] relates to Staphylococcus aureus ATCC 25923.
The test system of experiment [28] is Pseudomonas aeruginosa CICC 11431.
For experiment [29], the system named is Pseudomonas aeruginosa 21328.
Experiment [30] relates to Pseudomonas aeruginosa CICC 10419.
Experiment [31] deals with Pseudomonas aeruginosa ATCC 27853.
For experiment [32], the system named is Escherichia coli ATCC 25922.
For experiment [33], the system named is Staphylococcus aureus ATCC 29213.
For experiment [34], the system named is Pseudomonas aeruginosa CICC 11421.
In experiment [35] the test system is Pseudomonas aeruginosa CICC 21625.
The test system of experiment [36] is Pseudomonas aeruginosa CICC 21630.
Experiment [37] deals with Pseudomonas aeruginosa CICC 11411.
Experiment [38] concerns Pseudomonas aeruginosa 25349.
In experiment [39] the test system is Aeromonas hydrophila.
Experiment [40] relates to Bacillus cereus.
For experiment [41], the system named is Vibrio parahaemolyticus.
Experiment [42] deals with Staphylococcus aureus.
The subject of experiment [43] is Staphylococcus epidermidis.
Experiment [44] has as its system Cryptococcus neoformans.
The subject of experiment [45] is Bacillus subtilis.
Experiment [46] has as its system Shigella flexneri.
Experiment [47] concerns Escherichia coli.
The test system of experiment [48] is Vibrio alginolyticus.
Experiment [49] relates to Pseudomonas aeruginosa.
The subject of experiment [50] is Corynebacterium glutamicum.
Experiment [51] has as its system Candida albicans.
In experiment [52] the test system is Pseudomonas fluorescens.

≈ marks a conversion by molar mass, not a printed value. Some results are limits rather than exact numbers.

On to `CC[C@H](C)[C@H](NC(=O)[C@@H](NC(=O)[C@H](CCC(N)=O)NC(=O)[C@H](CCCN=C(N)N)NC(=O)[C@H](C)NC(=O)[C@H](C)NC(=O)[C@H](C)NC(=O)[C@H](Cc1c[nH]c2ccccc12)NC(=O)[C@@H](N)CCC(=O)O)C(C)C)C(=O)N[C@H](C(=O)N[C@@H](Cc1cnc[nH]1)C(=O)N[C@@H](C)C(=O)N[C@H](C(=O)N[C@@H](CCCN=C(N)N)C(=O)N[C@@H](CCCCN)C(=O)N[C@@H](Cc1ccc(O)cc1)C(=O)O)[C@@H](C)O)[C@@H](C)CC` [EWAAARQVIIHATRKY], for which the MIC in [1] is ≥ 66.9 µM; in experiment [2], ≥ 66.9 µM; in [3] it was ≥ 33.5 µM; in [4], ≥ 66.9 µM; in [5] it was ≥ 66.9 µM; in experiment [6], ≥ 66.9 µM. For the same compound, the MIC in experiment [7], in [8], in [9], in [10], in experiment [11] and in experiment [12] was ≥ 66.9 µM each time. Besides, the MIC was ≥ 66.9 µM in experiment [13]; ≥ 66.9 µM in experiment [14]; ≥ 66.9 µM in experiment [15]; ≥ 66.9 µM in experiment [16]; ≥ 66.9 µM in experiment [17]; > 66.9 µM in experiment [18]. For the same compound, the MIC in experiment [19], in [20], in [21], in experiment [22], in experiment [23] and in experiment [24] was ≥ 66.9 µM each time. Moreover, the MIC in experiment [25] is ≥ 66.9 µM.
For `CC[C@H](C)[C@H](NC(=O)CNC(=O)[C@H](CCCN=C(N)N)NC(=O)[C@@H](NC(=O)[C@@H](NC(=O)[C@H](CCCN=C(N)N)NC(=O)[C@@H](NC(=O)[C@@H](NC(=O)[C@@H](N)CCCCN)[C@@H](C)CC)[C@@H](C)CC)C(C)C)[C@@H](C)CC)C(=O)N[C@H](C(=O)N[C@@H](CCCN=C(N)N)C(=O)N[C@@H](CCCN=C(N)N)C(=O)N[C@@H](CCCN=C(N)N)C(N)=O)[C@@H](C)CC` [KIIRVIRGIIRRR], the MIC in experiment [26] and in [27] was 9.5 µM (≈ 15.7 µg/mL) each time.
On to `CC(C)C[C@H](NC(=O)[C@H](CCCN=C(N)N)NC(=O)[C@H](CCCN=C(N)N)NC(=O)[C@H](CC(C)C)NC(=O)[C@H](Cc1c[nH]c2ccccc12)NC(=O)[C@H](CCCN=C(N)N)NC(=O)[C@H](CCCN=C(N)N)NC(=O)[C@H](CCCN=C(N)N)NC(=O)[C@H](CC(C)C)NC(=O)[C@H](CCCN=C(N)N)NC(=O)[C@H](CCCN=C(N)N)NC(=O)[C@@H](N)CC(C)C)C(=O)N[C@@H](CCCN=C(N)N)C(=O)N[C@@H](CCCN=C(N)N)C(=O)N[C@@H](CCCN=C(N)N)C(N)=O` [LRRLRRRWLRRLRRR], for which the MIC is 28.8 µM (≈ 64 µg/mL) in experiment [28]; ≥ 57.7 µM in [29]; ≥ 115 µM in experiment [30]; 14.4 µM (≈ 32 µg/mL) in [31]; > 57.7 µM in [32]; 28.8 µM (≈ 64 µg/mL) in [33]. Besides, the MIC in experiment [34] is ≥ 115 µM; in [35], 28.8 µM (≈ 64 µg/mL); in experiment [36], 14.4 µM (≈ 32 µg/mL); in [37] it was ≥ 57.7 µM; in [38] it was 20.4 µM (≈ 45.2 µg/mL).
As for `CC(C)C[C@H](NC(=O)[C@H](CO)NC(=O)[C@H](CC(C)C)NC(=O)[C@H](Cc1cnc[nH]1)NC(=O)[C@H](CO)NC(=O)[C@@H](N)CCC(N)=O)C(=O)N[C@H]1CSSC[C@@H](C(=O)N[C@@H](CCCCN)C(=O)N[C@@H](Cc2ccccc2)C(=O)O)NC(=O)[C@@H]2CSSC[C@@H]3NC(=O)[C@H](CSSC[C@H](NC(=O)[C@H](CC(N)=O)NC3=O)C(=O)N[C@H]3CSSC[C@H](NC(=O)CNC(=O)[C@H](CCCCN)NC(=O)[C@H](Cc4ccc(O)cc4)NC(=O)[C@H](CCCN=C(N)N)NC(=O)[C@H](CC(N)=O)NC3=O)C(=O)NCC(=O)N[C@@H](Cc3ccccc3)C(=O)N2)NC(=O)[C@H](Cc2c[nH]c3ccccc23)NC(=O)[C@H](CCCN=C(N)N)NC1=O` [QSHLSLCRWCCNCCNRYKGCGFCCKF], the MIC is ≥ 50 µM in experiment [39]; ≥ 50 µM in [40]; ≥ 50 µM in experiment [41]; > 50 µM in experiment [42]; ≥ 50 µM in experiment [43]; ≥ 50 µM in experiment [44]. Further, the MIC in experiment [45] was 8.84 µM (≈ 27 µg/mL); in experiment [46], ≥ 50 µM; in [47], > 50 µM; in experiment [48], ≥ 50 µM; in experiment [49], 35.4 µM (≈ 108 µg/mL); in [50], 8.84 µM (≈ 27 µg/mL). In addition, the MIC in experiment [51] was > 50 µM; in [52], 17.7 µM (≈ 54 µg/mL).
